The values below come from patent publication US7288567B2, “Inhibitors of histone deacetylase” (Methylgene Inc., priority 2000, dated 2007).

Counter-ions that a name gives are not always drawn.

The target of the first assay is T1, recombinant human HDAC-1 enzyme (rHDAC-1) (Homo sapiens, UniProt Q13547).
T1 construct: made in house; host or cells: Baculovirus insect cell expression system
T1 sequence (Q13547 whole entry): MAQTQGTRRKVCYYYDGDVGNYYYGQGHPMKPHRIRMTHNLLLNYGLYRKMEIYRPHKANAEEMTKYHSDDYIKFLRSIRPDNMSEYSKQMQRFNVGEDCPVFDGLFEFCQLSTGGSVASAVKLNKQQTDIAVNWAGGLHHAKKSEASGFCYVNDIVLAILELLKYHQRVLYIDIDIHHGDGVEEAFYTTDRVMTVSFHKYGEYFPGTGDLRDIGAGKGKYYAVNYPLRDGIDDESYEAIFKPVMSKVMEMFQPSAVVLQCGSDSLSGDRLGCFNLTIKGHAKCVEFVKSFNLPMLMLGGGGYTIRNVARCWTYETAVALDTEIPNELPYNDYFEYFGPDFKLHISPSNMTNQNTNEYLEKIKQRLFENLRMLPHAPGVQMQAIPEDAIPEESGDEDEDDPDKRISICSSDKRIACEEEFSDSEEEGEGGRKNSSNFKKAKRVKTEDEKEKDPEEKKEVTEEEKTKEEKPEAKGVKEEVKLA
The assay is described as follows: Histone deacetylase inhibition, recombinant human HDAC-1. It is filed as biochemical.
Details: not given
The method, then:
The reaction was stopped by adding acetic acid (0.04 M, final concentration) and HCl (250 mM, final concentration). The mixture was extracted with ethyl acetate and the released [^3H]-acetic acid was quantified by scintillation counting. For inhibition studies, the enzyme was preincubated with compounds at 4° C. for 30 minutes prior to initiation of the enzymatic assay. IC50 values for HDAC enzyme inhibitors were determined by performing dose response curves with individual compounds and determining the concentration of inhibitor producing fifty percent of the maximal inhibition.
In general, IC50 refers to the concentration needed to halve the response being measured. As to `O=C(CCCCCNCc1ccc2ccccc2c1)NO` [Compound 223, N-Hydroxy-6-N-(2-naphthylmethylamino)hexanamide trifluoroacetate], the half-inhibitory concentration (IC50) is 2 µM.

Still in this assay, the particulars now being: cloned recombinant human HDAC-1, Baculovirus insect cell expression; read-out: rHDAC-1 IC50.
Regarding `Nc1ccccc1NC(=O)CCCCSCC(=O)c1ccc(-c2ccccc2)cc1` [Compound 227b, N-(2-Aminophenyl)-5-(4-biphenylcarbonylmethanesulfanyl)pentanamide], the 50% inhibitory concentration (IC50) was found to be 3 µM.

On to `COc1ccc(-c2ccc(C(=O)CCCCCCC(=O)NO)cn2)cc1OC` [Compound 150, N-Hydroxy-7-[5-(2-(3,4-dimethoxyphenyl)pyridyl)carbonyl]heptanamide], for which the IC50 came to 0.05 µM.

Consider `O=C(CCCCCC(=O)c1ccc(-c2ccccc2)cc1)Nc1n[nH]c(=S)s1` [Compound 128, N-(4,5-Dihydro-5-thioxo-1,3,4-thiadiazol-2-yl)-6-[(4-biphenyl)carbonyl]hexanamide], for which the IC50 is 19 µM.

For the compound `CN(CCCCC(=O)NO)Cc1ccc2ccccc2c1` [Compound 213, N-Hydroxy-5-N-(2-naphthylmethyl-methylamino)pentanamide], the IC50 was 3 µM.

For `Nc1ccccc1NC(=O)CCCCCN1C(=O)c2cc(Cl)c(Cl)cc2C1=O` [Compound 243f, N-(2-Aminophenyl)-6-(5,6-dichloro-N-phthaloyl)hexanamide], the IC50 turned out to be 3 µM.

`CN(CCCCCC(=O)Nc1ccccc1N)Cc1ccc2ccccc2c1` [Compound 210, N-(2-Aminophenyl)-N-(2-naphthylmethyl-methylamino)hexanamide]: the IC50 was found to be 10 µM.

As for `Nc1ccccc1NC(=O)CCCCCN1C(=O)c2cccc3c(Br)ccc(c23)C1=O` [Compound 251b, N-(2-Aminophenyl)-6-[2-(6-bromo-1,3-dioxo-1H,3H-benzo[de]isoquinolinyl)]-hexanamide], the IC50 came out at 1 µM.

`O=C(CCCCCCC(=O)c1ccc(N2CCNCC2)cc1)NO` [Compound 138c2]: the IC50 was 0.03 µM.

On to `COc1ccc(N)c(NC(=O)CCCCCCC(=O)c2ccc(-c3ccccc3)cc2)c1` [Compound 83, N-(3-(4-Amino)anisole)-7-[(4-biphenyl)carbonyl]heptanamide], for which the IC50 was 25 µM.

For `Nc1ccccc1NC(=O)CCCCCCCC(=O)c1ccc(-c2ccccc2)cc1` [Compound 130, N-(2-Aminophenyl)-8[(4-biphenyl)carbonyl]octanamide], the half-maximal inhibitory concentration (IC50) worked out at 3 µM.

`Nc1ccccc1NC(=O)CCCCCN1C(=O)c2cc(O)c(CN3CCCCC3)cc2C1=O` [Compound 243h, N-(2-Aminophenyl)-6-(5-hydroxy-6-(1-methylpiperidinyl)-N-phthaloyl)-hexanamide]: the 50% inhibitory concentration (IC50) came to 3 µM.

With `CC(C)(C)OC(=O)N(CCCCCC(=O)NO)Cc1ccc2ccccc2c1` [Compound 222, N-Hydroxy-6-N-(tert-butoxycarbonyl-2-naphthylmethylamino)hexanamide], the IC50 was 0.1 µM.

As to `O=C(CCCCSCC(=O)c1ccc(-c2ccccc2)cc1)NO` [Compound 226b, N-Hydroxy-5-(4-biphenylcarbonylmethanesulfanyl)pentanamide], the IC50 is 0.006 µM.

As for `O=C(CCCCSCC(=O)c1ccc2ccccc2c1)NO` [Compound 226a, N-Hydroxy-5-(2-naphthoylmethylsulfanyl)pentanamide], the IC50 is 0.007 µM.

`O=C(CCCCCCC(=O)c1cccc(-c2ccccc2)c1)NO` [Compound 131, N-Hydroxy-7-[(3-biphenyl)carbonyl]heptanamide]: the IC50 is 0.008 µM.

Turning to `O=C(CCCCCCC(=O)c1ccc(-c2ccccc2)cc1)Nc1n[nH]c(=S)s1` [Compound 79, N-(4,5-Dihydro-5-thioxo-1,3,4-thiadiazol-2-yl)-7-[(4-biphenyl)carbonyl]-heptanamide], the IC50 turned out to be 9 µM.

`CN(CCCCC(=O)NO)CCc1ccc2ccccc2c1` [Compound 216, N-Hydroxy-5-N-[2-(2-naphthylethyl)-methylamino]pentanamide]: the 50% inhibitory concentration (IC50) was 0.3 µM.

With `Nc1ccccc1NC(=O)CCCCCCC(=O)c1ccc(-c2ccc(CN3CCOCC3)cc2)cc1` [Compound 157, N-(2-Aminophenyl)-7-[4-(4-(N-methylmorpholinyl)phenyl)benzoyl]heptanamide], the IC50 stood at 4 µM.

For `CON=C(CCCCCCC(=O)Nc1ccccc1N)c1cccc(-c2ccccc2)c1` (mixture of isomers) [Compound 135, N-(2-Aminophenyl)-8-(E)-O-methyl-oximino-8-(3-biphenyl)octanamide], the IC50 was found to be 2 µM.

As for `O=C(CCCCCCC(=O)c1ccc(NCc2cccnc2)cc1)NO` [Compound 138f, N-Hydroxy-7-[4(N-3-aminomethylpyridyl)benzoyl]heptanamide], the IC50 turned out to be 0.02 µM.

For the compound `O=C(CCCCCCC(=O)c1cc2ccccc2[nH]1)NO` [Compound 100, N-Hydroxy-7-[2-(indolyl)carbonyl]heptanamide], the IC50 is 4 µM.

As to `Nc1ccccc1NC(=O)CCCCCN1Cc2ccccc2C1=O` [Compound 248, N-(2-Aminophenyl)-6-[2-(1-oxo-1,3-dihydro-isoindolyl)]hexanamide], the 50% inhibitory concentration (IC50) was 4 µM.

In the case of `CN(CCCCCC(=O)NO)Cc1ccc2ccccc2c1` [Compound 209, N-Hydroxy-N-(2-naphthylmethyl-methylamino)hexanamide], the half-inhibitory concentration (IC50) was found to be 0.05 µM.

As to `Nc1ccccc1NC(=O)CCCCCCOc1ccc(-c2ccccc2)cc1` [Compound 234, N-(2-Aminophenyl)-7-(4-biphenyloxy)heptanamide], the 50% inhibitory concentration (IC50) came out at 1 µM.

Consider `Nc1ccccc1NC(=O)CCCCCCN1C(=O)c2ccccc2C1=O` [Compound 243c, N-(2-Aminophenyl)-7-(N-phthaloyl)heptanamide], for which the IC50 was found to be 4 µM.

In the case of `O=C(CCCCCN(Cc1ccccc1)Cc1ccc2ccccc2c1)NO` [Compound 220b, N-Hydroxy-6-N-(Benzyl-2-naphthylmethylamino)hexanamide], the IC50 stood at 0.1 µM.

`Nc1ccccc1NC(=O)CCCCCCC(=O)c1ccccc1` [Compound 53a, N-(2-Aminophenyl)-7-benzoylheptanamide]: the IC50 came out at 0.6 µM.

With `C/C(=C/C(=O)Nc1ccccc1N)CCCCC(=O)c1ccc2ccccc2c1` [Compound 194, (Z)-N-(2-Aminophenyl)-3-methyl-7-(2-naphthoyl)-2-heptenamide], the IC50 is 24 µM.

Take `CC(C)(C)OC(=O)N(CCCCCC(=O)Nc1ccccc1N)Cc1ccc2ccccc2c1` [Compound 224, N-(2-Aminophenyl)-6-N-(tert-butoxycarbonyl-2-naphthylmethylamino)-hexanamide]: the IC50 is 3 µM.

Turning to `O=C(CCCCCCC(=O)c1ccccc1)Nc1ccccc1O` [Compound 86, N-(2-Hydroxyphenyl)-7-(benzoyl)heptanamide], the IC50 amounted to 5 µM.

With `Nc1ccccc1NC(=O)CCCCCCC(=O)c1cccc(-c2ccccc2)c1` [Compound 132, N-(2-Aminophenyl)-7-[(3-biphenyl)carbonyl]heptanamide], the IC50 worked out at 0.8 µM.

With `Nc1ccccc1NC(=O)CCCCSCC(=O)c1ccc2ccccc2c1` [Compound 227a, N-(2-Aminophenyl)-5-(2-naphthoylmethylsulfanyl)pentanamide], the IC50 was 3 µM.

With `Nc1ccccc1NC(=O)CCCCCN1C(=O)c2ccc(O)cc2C1=O` [Compound 243g, N-(2-Aminophenyl)-6-(5-hydroxy-N-phthaloyl)hexanamide], the IC50 amounted to 3 µM.

On to `Nc1ccccc1NC(=O)CCCCCN1C(=O)c2ccncc2C1=O` [Compound 246b], for which the 50% inhibitory concentration (IC50) was determined as 14 µM.

Take `Nc1ccccc1NC(=O)CCCCS(=O)(=O)CC(=O)c1ccc2ccccc2c1` [Compound 230a, N-(2-Aminophenyl)-5-(2-naphthoylmethylsulfonyl)pentanamide]: the IC50 stood at 5 µM.

For `Nc1ccccc1NC(=O)CCCCCN1C(=O)c2ccc([N+](=O)[O-])cc2C1=O` [Compound 243e, N-(2-Aminophenyl)-6-(5-nitro-N-phthaloyl)hexanamide], the IC50 came to 12 µM.

Take `O=C(CCCCS(=O)(=O)CC(=O)c1ccc2ccccc2c1)NO` [Compound 229a, N-Hydroxy-5-(2-naphthoylmethylsulfonyl)pentanamide]: the 50% inhibitory concentration (IC50) turned out to be 1 µM.

As for `Nc1ccccc1NC(=O)CCCCCCC(O)c1cccc(-c2ccccc2)c1` (stereo not shown) [Compound 133, N-(2-Aminophenyl)-8-(3-biphenyl)-8-hydroxy-octanamide], the IC50 was 1 µM.

Regarding `Nc1ccccc1NC(=O)CCCCN1C(=O)c2ccccc2C1=O` [Compound 243b, N-(2-Aminophenyl)-5-(N-phthaloyl)pentanamide], the 50% inhibitory concentration (IC50) is 99 µM.

With `CC(C)(C)OC(=O)N1CCN(c2ccc(C(=O)CCCCCCC(=O)NO)cc2)CC1` [Compound 138c1, N-Hydroxy-7-[4-(1-(4-tert-butyloxycarbonylpiperazinyl))benzoyl]heptanamide], the IC50 was found to be 0.03 µM.

Regarding `Nc1ccccc1NC(=O)CCCCCN1C(=O)c2cccnc2C1=O` [Compound 246a], the half-inhibitory concentration (IC50) turned out to be 5 µM.

As for `O=C(CCCCCN(Cc1ccc2ccccc2c1)C(=O)OCc1ccccc1)NO` [Compound 220a, N-Hydroxy-6-N-(Benzyloxycarbonyl-2-naphthylmethylamino)hexanamide], the IC50 turned out to be 0.02 µM.

In the case of `CC(CCCCC(=O)c1ccc2ccccc2c1)CC(=O)Nc1ccccc1N` (stereo not shown) [Compound 198, (Z)-N-(2-Aminophenyl)-3-methyl-7-(2-naphthoyl)heptanamide], the IC50 was 16 µM.

For the compound `O=C(CCCCS(=O)(=O)CC(=O)c1ccc(-c2ccccc2)cc1)NO` [Compound 229b, N-Hydroxy-5-(4-biphenylcarbonylmethylsulfonyl)pentanamide], the IC50 turned out to be 0.04 µM.

As to `Nc1ccccc1NC(=O)CCCCS(=O)(=O)CC(=O)c1ccc(-c2ccccc2)cc1` [Compound 230b, N-(2-Aminophenyl)-5-(4-biphenylcarbonylmethylsulfonyl)pentanamide], the IC50 came to 12 µM.
